Measurements taken from US20080194698A1, “Nmda Receptor Antagonists in the Medical Intervention of Metabolic Disorders” (priority 2005, published 2008).
Where two headings read alike, the source gives them in different places. Blank lines part the entries; values can stand above or below the molecule they belong to.

Columns and labels:
[1] = Oral (maternal and offspring feeding) or neonatal s.c. administration of monosodium glutamate to Wistar rats; type: in vivo
Experimental: The effects of oral administration of GLU were investigated in 32 pregnant rats and their offspring up to day 90 of life, in the animal facilities of the Department of Physiology, Medical School, Universidad Complutense, Madrid, Spain. The study was conducted in accordance with the principles and procedures outlined in the NIH Guide for the Care and Use of Laboratory Animals. Pregnant Wistar rats were kept under controlled conditions of light (12 h light/12 h darkness) and temperature (21+/−2C.°), and were fed with tap water and rat chow (Panlab, Barcelona, Spain) ad libitum.
At day 14 of pregnancy, the animals were divided into four groups (n=8), and either received no extra monosodium glutamate (MSG) (control, group 1), or 2.5 g MSG (group 2) or 5 g MSG per day (group 3), up to the end of the weaning period. 2.5 g, respectively 5 g MSG accounted for some 10%, respectively 20% of dry weight of the average daily food ration. After weaning and gender separation, MSG feeding was continued in the offspring at the same concentrations. A fourth group of animals received no MSG, but their offspring was injected with MSG 4 mg/g body weight s.c., at neonatal age as described earlier (Hermanussen, (1996) loc. cit.). Due to the existence of two gender groups a total of 8 experimental groups were obtained with n=6-9 for each group of females and males. All litter was weighed at weekly intervals, and the amount of food consumed was registered daily. Offspring was sacrificed half at day 30 and the rest at day 90 of life.
Half of the animals were killed by decapitation at day 30 and the other half at the end of the observation period at day 90. Anterior pituitaries were removed, and trunk blood was collected. Serum samples and anterior pituitaries after being weighted, were kept at −80° C., for hormonal determinations by specific radioimmunoassays (RIA). Pituitary homogenates were obtained by manual glass homogenizers, and processed in saline after thawing in the moment of the measurement.
Plasma GH levels and pituitary GH content were determined by RIA as previously described.^21 Pituitary homogenates were diluted 1:5000 for determination. Reagents were kindly provided by the National Institute of Diabetes, Digestive and Kidney Diseases (NIDDK). The standard used was rat GH RP2. The sensitivity of the curve was 2 ng/ml and the intraassay coefficient of variation was 5.7%. Plasma IGF I concentrations were measured using a commercially available rat RIA kit (DSL-2900, Diagnostic Systems Laboratories, INC). The sensitivity of the assay was 20 ng/ml, and the intraassay coefficients of variation for mean serum concentrations of 323, 772 and 1604 ng/ml were 5.9%, 6.1% and 3.8%, respectively.
Values are expressed as mean +/−SEM. […] To determine differences in final weight or hormonal levels a two-way ANOVA test was performed. Differences among groups were subjected to a post-hoc comparison by using Tukey HSD for unequal N test. Statistics were executed using Statistica program. The significance level was determined to be p<0.05.

[2] = Preliminary clinical trial of memantine in obese, otherwise healthy patients; type: in vivo, human
Experimental: The patients experienced an initial loss of body weight of 1 to 3 kg within a 7 day period. Further weight loss is observed during the course of administration over a longer period of time, see appended FIG. 6.
FIG. 6. Percent body weight decline in seven obese and one overweight subjects (6 females, 2 males) during a two month therapeutical trial with memantine (Axura®, Merz Pharmaceuticals GmbH), 5-10 mg in the morning, and 5-20 mg late in the afternoon (Patient […] initial body weight 126.6 kg, […] initial body weight 90.6 kg, Re initial body weight 93.5 kg, Br initial body weight 122.3 kg, Ku initial body weight 111.0 kg, Ho initial body weight 77.6 kg, Sk (male) initial body weight 148.6 kg, Le (male) initial body weight 109.6 kg).
The following preliminary and limited clinical trials have been carried out in the private practice of the inventor. The trials with memantine are carried out since Feb. 2, 2005, in eight obese, but otherwise healthy patients, 6 females, and 2 males (Table 1; FIG. 6).

[3] = cited from earlier work
[4] = doses 100 to 1400 mg; seven of 13 female patients; cited from earlier work
[5] = 5 g MSG per day, day 90 of life, p<0.01

food uptake [1, 5]: almost twofold
water uptake [1, 5]: threefold
weight increments during weaning ([1]; MSG feeding to the mothers maintained during weaning, p<0.01): subnormal
IGF-1 serum levels ([1]; compared with the GH results, day 30 and day 90 of life): Almost identical results
birth weight of the offspring ([1]; maternal feeding with 2.5 g MSG per day, compared to controls): no birth weight modification
birth weight of the offspring ([1]; maternal feeding with 5 g MSG per day, p<0.01): severe birth weight reduction
appetite ([1]; medium MSG diet (2.5 g MSG per day) and particularly high MSG diet (5 g MSG per day)): marked voracity
serum GH levels ([1]; medium MSG diet (2.5 g MSG per day), day 30 of life, p<0.01): low
GH plasma levels of the offspring ([1]; neonatally injected with MSG 4 mg/g body weight s.c., day 30 and day 90 of life, p<0.05): low
SMILES: N[C@@H](CCC(=O)O)C(=O)[O-].[Na+] [MSG, monosodium glutamate]
appetite ([1]; MSG injected animals, compared to controls): did not show significantly increased appetite
serum GH levels ([1]; high MSG diet (5 g MSG per day), day 30 and day 90 of life, p<0.05): as low or even lower than those of MSG injected animals

SMILES: CC12CC3CC(C)(C1)CC(N)(C3)C2 [memantine]
late afternoon or evening binge-eating disorders (patient report) ([2]; already at the second day of treatment): complete disappeared
side effects ([2]; initial treatment period): Apart from short moments of mild dizziness at the first day, and mild constipation, there were no side effects
appetite (patient report) ([2]; obese patients on memantine): significant decrease in appetite
Weight (kg) after treatment ([2]; patient eight, 93.5 kg, BMI 32.6 before treatment, 56 days of treatment): 91.3 kg
Weight (kg) after treatment ([2]; patient five, 90.6 kg, BMI 33.3 before treatment, 49 days of treatment): 86.6 kg
Weight (kg) after treatment ([2]; patient four, 109.6 kg, BMI 31.7 before treatment, 54 days of treatment): 99.4 kg
Weight (kg) after treatment ([2]; patient one, 111.0 kg, BMI 38.6 before treatment, 56 days of treatment): 104.4 kg
Weight (kg) after treatment ([2]; patient seven, 77.6 kg, BMI 27.5 before treatment, 77 days of treatment): 71.4 kg
Weight (kg) after treatment ([2]; patient six, 126.6 kg, BMI 43.3 before treatment, 67 days of treatment): 111.3 kg
Weight (kg) after treatment ([2]; patient three, 122.3 kg, BMI 42.8 before treatment, 40 days of treatment): 117.5 kg
Weight (kg) after treatment ([2]; patient two, 148.6 kg, BMI 38.3 before treatment, 25 days of treatment): 144.8 kg

SMILES: CC1(C)O[C@@H]2[C@@H](CO[C@@]3(COS(N)(=O)=O)OC(C)(C)O[C@@H]23)O1 [topiramate]
weight loss ([3]; 64 mg/d, 6 months): 5.0%
weight loss ([3]; 96 mg, 6 months): 4.8%
weight loss ([3]; 192 mg, 6 months): 6.3%
weight loss ([3]; 384 mg, intention-to-treat population, 6 months, placebo 2.6%): 6.3%
weight loss ([3]; 384-mg dose, completers): up to 8.5%
weight loss [4]: > 5 kg
